This is an account of results in patent publication US20250214960A1, “COMPOUNDS HAVING ACTIVITY OF DEGRADING GSPT1 AND APPLICATION THEREOF” (SHANGHAI MEIZER PHARMACEUTICALS CO., LTD., priority 2021, published 2025).

SMILES strings stand for the structures. pIC50: −log10 of the molar value. Like-named read-outs stand apart in the source and are kept apart here.

Holding throughout (format): cell-based
One assay concerns the target T1, GSPT1 protein (Homo sapiens, UniProt P15170+Q96SW2).
T1 construct: endogenous in cells; host or cells: Jeko-1
As to the kind of experiment: Western blot detection of degradation activity of GSPT1 protein in Jeko-1 cells. Particulars: JeKo-1, 24 h, read-out: GSPT1 degradation rate (%). How it is done: Test Example 1: Western Blot Detection of Degradation Activity of GSPT1 Protein by the Compounds
Cell line: Jeko-1 cell line was cultured with an RPMI1640 media containing 20% fetal bovine serum in an incubator at 37° C., 5% CO2, and saturated humidity.
DMSO control group and test compound (concentration shown in the table below) were set up, after processing for 24 hours, the cells were collected, pre-cooled cell lysate was added and left on ice for 10 minutes. The total protein of the cells was extracted, and the protein concentration was measured and quantified using the BCA method. Routine gel preparation, sample loading, electrophoresis were conducted, then the membrane was transferred, and sealed, wherein the primary antibody was diluted with a blocking solution at 1:500-5000. The membrane was immersed in the diluted primary antibody and incubated overnight at 4° C. After rinsing, the secondary antibody was diluted with a sealing solution at 1:10000-20000, the membrane was immersed in the diluted secondary antibody, and incubated at room temperature for 45 minutes. After rinsing, the results were tested on ODYSSEY (Li-COR). GAPDH was used as an internal reference control.
Image J software was used to perform gray level analysis on each band and the degradation rate of GSPT1 protein by the compounds was calculated.
(In western blotting, separated proteins are transferred to a membrane and probed.)

The next assay concerns HNT-34 cells. As to the kind of experiment: CTG method, inhibition of HNT-34 cell proliferation. Particulars: HNT-34, 72 hours; read-out: Cellular proliferation inhibition IC50. How it is done: (§1) Test Example 2: CTG Method for Detecting the Inhibitory Effect of Compounds of Formula on the Proliferation of HNT 34 or HL-60 Cells
(§2) HNT-34 or HL-60 cells were taken and cultured in RPMI1640 medium containing 20% fetal bovine serum. The cells were inoculated on a 96 well plate, with 1×10^4 cells per well, and incubated at 37° C. in a […] incubator. After adding the test compound, it was incubated for 72 hours. Then an appropriate amount of CTG reagent was added, the luminescence value was measured, and the inhibition rate was calculated.

A further assay concerns HL-60 cells. As to the kind of experiment: CTG method, inhibition of HL-60 cell proliferation. The settings on record: Homo sapiens; HL-60, 72 hours; read-out: Cellular proliferation inhibition IC50. How it is done: as §1, §2

T1 sequence (P15170 whole entry): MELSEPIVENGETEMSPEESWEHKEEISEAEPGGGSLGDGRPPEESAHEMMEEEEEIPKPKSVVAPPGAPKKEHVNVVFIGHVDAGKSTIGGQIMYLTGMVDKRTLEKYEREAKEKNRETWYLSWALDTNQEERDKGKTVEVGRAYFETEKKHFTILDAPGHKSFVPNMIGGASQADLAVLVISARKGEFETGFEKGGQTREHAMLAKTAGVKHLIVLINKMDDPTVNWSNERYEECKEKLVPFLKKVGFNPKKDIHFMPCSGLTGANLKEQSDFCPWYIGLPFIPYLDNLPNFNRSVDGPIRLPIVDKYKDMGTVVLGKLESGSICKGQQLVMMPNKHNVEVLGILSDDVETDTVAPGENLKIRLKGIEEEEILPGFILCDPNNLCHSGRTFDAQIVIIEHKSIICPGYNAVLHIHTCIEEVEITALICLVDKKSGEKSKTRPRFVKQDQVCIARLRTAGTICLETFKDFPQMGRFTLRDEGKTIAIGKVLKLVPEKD
T1 sequence (Q96SW2 whole entry): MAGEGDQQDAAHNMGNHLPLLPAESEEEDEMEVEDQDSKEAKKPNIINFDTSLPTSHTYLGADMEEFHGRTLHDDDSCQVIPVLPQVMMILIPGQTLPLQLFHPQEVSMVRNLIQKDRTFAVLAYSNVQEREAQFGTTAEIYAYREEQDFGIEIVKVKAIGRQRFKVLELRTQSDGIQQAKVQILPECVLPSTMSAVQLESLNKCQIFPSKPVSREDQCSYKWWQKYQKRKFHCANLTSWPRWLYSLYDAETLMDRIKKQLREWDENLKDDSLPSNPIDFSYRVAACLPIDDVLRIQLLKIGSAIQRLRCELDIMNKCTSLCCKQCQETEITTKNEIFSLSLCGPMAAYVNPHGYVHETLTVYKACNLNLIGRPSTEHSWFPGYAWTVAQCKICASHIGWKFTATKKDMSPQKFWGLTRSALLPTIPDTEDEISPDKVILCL
T1 sequence (Q16531 whole entry partner): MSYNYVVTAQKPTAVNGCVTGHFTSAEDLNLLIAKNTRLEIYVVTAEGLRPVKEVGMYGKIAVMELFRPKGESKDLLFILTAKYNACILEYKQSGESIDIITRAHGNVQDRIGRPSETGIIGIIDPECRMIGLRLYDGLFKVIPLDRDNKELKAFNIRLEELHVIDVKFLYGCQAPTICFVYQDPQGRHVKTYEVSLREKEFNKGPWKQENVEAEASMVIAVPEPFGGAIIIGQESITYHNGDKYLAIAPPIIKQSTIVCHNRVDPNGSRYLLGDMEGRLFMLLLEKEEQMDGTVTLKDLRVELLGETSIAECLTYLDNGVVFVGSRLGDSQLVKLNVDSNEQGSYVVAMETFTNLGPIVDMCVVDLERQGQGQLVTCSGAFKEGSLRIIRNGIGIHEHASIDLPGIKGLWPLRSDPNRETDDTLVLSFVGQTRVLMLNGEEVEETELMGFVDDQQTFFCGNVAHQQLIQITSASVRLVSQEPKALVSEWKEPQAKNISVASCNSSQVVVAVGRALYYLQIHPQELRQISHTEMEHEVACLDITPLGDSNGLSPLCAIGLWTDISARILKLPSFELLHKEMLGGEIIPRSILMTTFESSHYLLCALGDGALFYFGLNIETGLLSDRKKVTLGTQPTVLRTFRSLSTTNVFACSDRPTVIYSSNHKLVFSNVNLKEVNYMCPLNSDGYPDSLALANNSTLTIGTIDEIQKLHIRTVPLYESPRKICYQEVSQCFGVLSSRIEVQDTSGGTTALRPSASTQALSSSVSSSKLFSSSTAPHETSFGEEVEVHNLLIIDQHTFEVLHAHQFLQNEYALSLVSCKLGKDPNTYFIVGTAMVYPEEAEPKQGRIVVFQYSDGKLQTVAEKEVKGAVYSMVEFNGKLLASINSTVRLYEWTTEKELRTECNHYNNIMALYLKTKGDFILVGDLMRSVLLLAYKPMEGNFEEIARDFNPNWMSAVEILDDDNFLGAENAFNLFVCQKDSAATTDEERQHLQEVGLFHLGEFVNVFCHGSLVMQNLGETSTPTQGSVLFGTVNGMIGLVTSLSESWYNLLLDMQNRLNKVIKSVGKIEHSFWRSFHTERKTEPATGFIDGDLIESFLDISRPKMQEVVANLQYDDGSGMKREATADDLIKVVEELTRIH

For `CC(C)(C)OC(=O)N[C@H](C(=O)NCc1ccc2c(c1)CN(C1CCC(=O)NC1=O)C2=O)c1ccc(F)cc1` (stereo partly drawn) [Compound 4-136, Tert butyl ((1S)-2-((2-(2,6-dioxypiperidin-3-yl)-1-oxoisoidoline-5-yl)methyl)amino)-1-(4-fluorophenyl)-2-oxoethyl) carbamate], on GSPT1 protein (100 nM, Jeko-1 cells, 24 hours), the inhibition at 0.1 µM stood at 82%. Also, the inhibition at 10 µM on GSPT1 protein (10 μM, Jeko-1 cells, 24 hours) is 97%. In the assay with HNT-34 cells, the pIC50 was 8.44.

For `CC(C)(C)OC(=O)N[C@H](C(=O)NCc1ccc2c(c1)CN([C@H]1CCC(=O)NC1=O)C2=O)c1ccccc1Cl` [Compound 5-17b, Tert butyl ((1S)-1-(2-chlorophenyl)-2-((2-((S)-2,6-dioxopyridin-3-yl)-1-oxoisoidoline-5-yl)methyl)amino)-2-oxoethyl) carbamate], at GSPT1 protein (10 nM, Jeko-1 cells, 24 hours), the inhibition at 0.01 µM was 57%. Further, the inhibition at 1 µM at GSPT1 protein (1 μM, Jeko-1 cells, 24 hours) came to 100%. For the same molecule, the pIC50 in the assay with HL-60 cells is 8.34.

Regarding `CC(C)OC(=O)N[C@@H](Cc1ccccc1)C(=O)NCc1ccc2c(c1)CN(C1CCC(=O)NC1=O)C2=O` (stereo partly drawn) [Compound 5-39, Isopropyl ((2S)-1-(2-(2,6-dioxypiperidin-3-yl)-1-oxoisoindoline-5-yl)methyl)amino)-1-oxo-3-phenylprop-2-yl) carbamate], at GSPT1 protein, the inhibition at 0.1 µM came to 65.2% and the inhibition at 10 µM was determined as 85.8%.

As for `CC(C)(C)OC(=O)N[C@@H](CC(N)=O)C(=O)NCc1ccc2c(c1)CN(C1CCC(=O)NC1=O)C2=O` (stereo partly drawn) [Compound 5-43, Tert butyl ((2S)-4-amino-1-((2-(2,6-dioxypiperidin-3-yl)-1-oxoisoindolin-5-yl)methyl)amino)-1,4-dioxobutane-2-yl) carbamate], the inhibition at 0.1 µM at GSPT1 protein (100 nM, Jeko-1 cells, 24 hours) came out at 11.6%. For the same molecule, the inhibition at 10 µM on GSPT1 protein (10 μM, Jeko-1 cells, 24 hours) came to 87.9%.

As to `O=C1CCC(N2Cc3cc(CNC(=O)[C@@H](CNC(=O)C4CCCC4)c4ccc(Cl)cc4)ccc3C2=O)C(=O)N1` (stereo partly shown) [Compound 5-52], the inhibition at 0.1 µM at GSPT1 protein (100 nM, Jeko-1 cells, 24 hours) amounted to 38.1%. The inhibition at 10 µM on GSPT1 protein (10 μM, Jeko-1 cells, 24 hours) was 92.7%.

For the molecule `O=C1CCC(N2Cc3cc(CNC(=O)C(CNC(=O)C4CCCC4)c4ccccc4)ccc3C2=O)C(=O)N1` [Compound 5-53, N-((2R)-3-((2-(2,6-dioxypiperidin-3-yl)-1-oxoisoindolin-5-yl)methyl)amino)-3-oxo-2-phen ylpropyl) cyclopentyl Formamide], the inhibition at 0.1 µM at GSPT1 protein (100 nM, Jeko-1 cells, 24 hours) was determined as 26.1%. The inhibition at 10 µM on GSPT1 protein (10 μM, Jeko-1 cells, 24 hours) was 91.2%.

`O=C1CCC(N2Cc3cc(CNC(=O)[C@H](CC4CCCCC4)NC(=O)C4CCCC4)ccc3C2=O)C(=O)N1` (stereo partly shown) [Compound 5-54]: on GSPT1 protein (100 nM, Jeko-1 cells, 24 hours), the inhibition at 0.1 µM came to 41.3%. Also, the inhibition at 10 µM at GSPT1 protein (10 μM, Jeko-1 cells, 24 hours) was 87.1%.

On to `CC(C)(C)OC(=O)NCC(C(=O)NCc1ccc2c(c1)CN(C1CCC(=O)NC1=O)C2=O)C1CCCCC1` (stereo not shown) [Compound 5-55, Tert butyl (2-cyclohexyl-3-((2-(2,6-dioxypiperidin-3-yl)-1-oxoisoindoline-5-yl)methyl)amino)-3-oxopropyl) carbamate], for which, at GSPT1 protein (100 nM, Jeko-1 cells, 24 hours), the inhibition at 0.1 µM was 85.1%. Besides, the inhibition at 10 µM at GSPT1 protein (10 μM, Jeko-1 cells, 24 hours) worked out at 93.9%.

Regarding `O=C1CCC(N2Cc3cc(CNC(=O)C(CNC(=O)C4CCCC4)C4CCCCC4)ccc3C2=O)C(=O)N1` (stereo not shown) [Compound 5-59], the inhibition at 0.1 µM at GSPT1 protein (100 nM, Jeko-1 cells, 24 hours) was found to be 36%. Besides, the inhibition at 10 µM on GSPT1 protein (10 μM, Jeko-1 cells, 24 hours) came out at 93.7%.

As for `CN(C(=O)OC(C)(C)C)C(C(=O)NCc1ccc2c(c1)CN(C1CCC(=O)NC1=O)C2=O)c1ccc(Cl)c(Cl)c1` (stereo not shown) [Compound 5-76, Tert butyl (1-(3,4-dichlorophenyl)-2-((2-(2,6-dioxopyridin-3-yl)-1-oxoisoidoline-5-yl)methyl)amino)-2-oxoethyl (methyl) carbamate], the inhibition at 0.1 µM on GSPT1 protein (100 nM, Jeko-1 cells, 24 hours) is 65.2%. Further, the inhibition at 10 µM at GSPT1 protein (10 μM, Jeko-1 cells, 24 hours) came to 84.6%.

As to `CC(C)(C)OC(=O)O[C@H](C(=O)NCc1ccc2c(c1)CN(C1CCC(=O)NC1=O)C2=O)c1ccccc1` (stereo partly drawn) [Compound 5-82, Tert butyl ((1S)-2-((2-(2,6-dioxypiperidin-3-yl)-1-oxoisoindoline-5-yl)methyl)amino)-2-oxo-1-phenylethy 1) carbonate], at GSPT1 protein (100 nM, Jeko-1 cells, 24 hours), the inhibition at 0.1 µM was found to be 29.8%. Also, the inhibition at 10 µM on GSPT1 protein (10 μM, Jeko-1 cells, 24 hours) was determined as 74.8%.

Turning to `CC(C)(C)OC(=O)N[C@H](Cc1ccccc1Cl)C(=O)NCc1ccc2c(c1)CN(C1CCC(=O)NC1=O)C2=O` (stereo partly drawn) [Compound 5-83, Tert butyl ((2R)-3-(2-chlorophenyl)-1-((2-(2,6-dioxopyridin-3-yl)-1-oxoisoidoline-5-yl)methyl)amino)-1-oxopropan-2-yl) carbamate], the inhibition at 0.1 µM on GSPT1 protein (100 nM, Jeko-1 cells, 24 hours) was found to be 96.2%. In addition, at GSPT1 protein (10 μM, Jeko-1 cells, 24 hours), the inhibition at 10 µM was determined as 95.5%.

As to `CC(C)C[C@H](NC(=O)OC(C)(C)C)C(=O)NCc1ccc2c(c1)CN(C1CCC(=O)NC1=O)C2=O` (stereo partly drawn) [Compound 5-84, Tert butyl ((2S)-1-((2-(2,6-dioxypiperidin-3-yl)-1-oxoisoidoline-5-yl)methyl)amino)-4-methyl-1-oxapent-2-yl) carbamate], on GSPT1 protein (100 nM, Jeko-1 cells, 24 hours), the inhibition at 0.1 µM was found to be 52.7%. Further, the inhibition at 10 µM on GSPT1 protein (10 μM, Jeko-1 cells, 24 hours) was 82.7%.

With `O=C1CCC(N2Cc3cc(CNC(=O)[C@H](CC4CCCCC4)NC(=O)OC4CCCC4)ccc3C2=O)C(=O)N1` (stereo partly drawn) [Compound 5-93, Cyclopentyl ((2S)-3-cyclohexyl-1-((2-(2,6-dioxopyridin-3-yl)-1-oxoisoidoline-5-yl)methyl)amino)-1-oxopropan-2-yl) carbamate], on GSPT1 protein, the inhibition at 0.1 µM was 99% and the inhibition at 10 µM worked out at 100%.

As to `O=C1CCC(N2Cc3cc(CNC(=O)[C@@H](CNC(=O)C4CCCC4)c4ccccc4)ccc3C2=O)C(=O)N1` (stereo partly shown) [Compound 5-95], on GSPT1 protein (100 nM, Jeko-1 cells, 24 hours), the inhibition at 0.1 µM stood at 16%. In addition, on GSPT1 protein (10 μM, Jeko-1 cells, 24 hours), the inhibition at 10 µM came to 70%.

Turning to `CC(C)(C)OC(=O)NC(CC(=O)NCc1ccc2c(c1)CN(C1CCC(=O)NC1=O)C2=O)C1CCCC1` (stereo not shown) [Compound 5-99, Tert butyl (1-cyclopentyl-3-((2-(2,6-dioxypiperidin-3-yl)-1-oxoisoindoline-5-yl)methyl)amino)-3-oxopropyl) carbamate], the inhibition at 0.1 µM on GSPT1 protein (100 nM, Jeko-1 cells, 24 hours) worked out at 98%. Further, the inhibition at 10 µM on GSPT1 protein (10 μM, Jeko-1 cells, 24 hours) turned out to be 99%.

For `O=C1CCC(N2Cc3cc(CNC(=O)[C@@H](NC(=O)OC4CCOC4)c4ccccc4)ccc3C2=O)C(=O)N1` (stereo partly drawn) [Compound 6-01, ((1S)-2-(((2-(2,6-dioxopyridin-3-yl)-1-oxoisoindoline-5-yl)methyl)amino)-2-oxo-1-phenylethyl) carbamate-β-Oxocyclopentanol Ester], at GSPT1 protein, the inhibition at 0.01 µM came to 10% and the inhibition at 1 µM turned out to be 68%.

Turning to `O=C1CCC(N2Cc3cc(CNC(=O)[C@@H](NC(=O)OC4CCCCC4)c4ccccc4)ccc3C2=O)C(=O)N1` (stereo partly drawn) [Compound 6-02, ((1S)-2-(((2-(2,6-dioxypiperidin-3-yl)-1-oxoisoindoline-5-yl)methyl)amino)-2-oxo-1-phenylethyl) carbamate Cyclohexanol Ester], on GSPT1 protein, the inhibition at 0.01 µM was 95% and the inhibition at 1 µM was 96%.

`O=C1CCC(N2Cc3cc(CNC(=O)[C@@H](NC(=O)OC4CCOCC4)c4ccccc4)ccc3C2=O)C(=O)N1` (stereo partly drawn) [Compound 6-03, ((1S)-2-(((2-(2,6-dioxopyridin-3-yl)-1-oxoisoindoline-5-yl)methyl)amino)-2-oxo-1-phenylethyl) carbamate-γ-Oxyhexanol Ester]: at GSPT1 protein, the inhibition at 0.01 µM was 28% and the inhibition at 1 µM is 90%.
